Data: patent US20120129811A1, “TRICYCLIC INHIBITORS OF PRO-MATRIX METALLOPROTEINASE ACTIVATION” (priority 2010, published 2012)
Structures can show the parent of a compound that is named as a salt.

What was measured:
[1] = molecular target: T1, proMMP9(20-445;ΔFnII) (SEQ ID NO:6) (Homo sapiens, UniProt P14780, DEL216-390); test: ThermoFluor binding assay with proMMP9(20-445;ΔFnII)
T1 construct: start methionine (N); made in house; host or cells: E. coli BL21(DE3) RIL
T1 sequence (P14780 with tags, fused parts or gaps DEL216-390): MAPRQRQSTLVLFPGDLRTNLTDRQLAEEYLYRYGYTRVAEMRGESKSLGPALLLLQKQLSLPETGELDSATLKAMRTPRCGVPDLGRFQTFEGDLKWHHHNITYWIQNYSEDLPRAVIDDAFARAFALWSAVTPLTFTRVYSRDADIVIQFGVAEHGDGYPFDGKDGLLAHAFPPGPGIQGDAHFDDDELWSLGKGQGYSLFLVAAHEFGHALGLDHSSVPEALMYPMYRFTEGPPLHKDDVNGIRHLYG
How it was run: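 Protein thermal stability was measured with 2.8 μM proMMP9(20-445;ΔFnII) and 50 μM 1,8-ANS in 50 mM HEPES pH 7.0, 100 mM NaCl, 0.001% Tween-20, 2.5 mM MgCl2, 300 μM CaCl2, across serial compound dilutions. Samples were heated 40–90° C at 1° C/min with fluorescence read at 500 nm. Tm was fitted, and binding was derived from thermodynamic parameters obtained by DSC and ThermoFluor.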

[2] = molecular target: T2, proMMP9(67-444;ΔFnII) (SEQ ID NO:5) (Homo sapiens, UniProt P14780, DEL216-390); test: ThermoFluor binding assay with proMMP9(67-444;ΔFnII)
T2 construct: start methionine (N); made in house; host or cells: E. coli BL21(DE3) RIL
T2 sequence (P14780 with tags, fused parts or gaps DEL216-390): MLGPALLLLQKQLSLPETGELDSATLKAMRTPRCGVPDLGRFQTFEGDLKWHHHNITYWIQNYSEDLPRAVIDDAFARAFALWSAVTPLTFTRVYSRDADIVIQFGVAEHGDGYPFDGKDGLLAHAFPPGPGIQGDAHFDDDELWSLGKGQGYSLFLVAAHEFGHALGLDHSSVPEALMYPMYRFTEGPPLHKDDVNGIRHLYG
How it was run: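 Thermal shift of 3.5 μM proMMP9(67-444;ΔFnII), desalted beforehand, with 50 μM 1,8-ANS in 50 mM HEPES pH 7.0, 100 mM NaCl, 2.5 mM MgCl2, 300 μM CaCl2, 0.001% Tween-20. Heated 40–90 °C at 1 °C/min, fluorescence read at 500 nm; binding fitted from Tm shifts using DSC- and ThermoFluor-derived unfolding parameters.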

[3] = molecular target: T3, proMMP13(1-268) (SEQ ID NO:7) (Homo sapiens, UniProt P45452); test: ThermoFluor binding assay with proMMP13(1-268)
T3 construct: 6xHis (C); made in house; host or cells: HEK293 (transient, secreted)
How it was run: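 Thermal shift of desalted proMMP13(1-268) at 3.5 μM final, in 50 mM HEPES pH 7.0, 100 mM NaCl, 0.001% Tween-20, 2.5 mM MgCl2, 300 μM CaCl2, with 25 μM 1,8-ANS. Serially diluted compounds heated 40–90° C. at 1° C./min, fluorescence read at 500±25 nm. Tm fitted; binding modeled using DSC-derived thermodynamic parameters.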

[4] = molecular target: T4, full-length proMMP9(1-707) activation by catalytic MMP3 (Homo sapiens, UniProt P14780, R574P); test: proMMP9/MMP3 P126 Activation Assay; format: biochemical
T4 construct: made in house; host or cells: proMMP9: HEK293 (secreted); MMP3: E. coli
T4 sequence (P14780 20-707 R574P): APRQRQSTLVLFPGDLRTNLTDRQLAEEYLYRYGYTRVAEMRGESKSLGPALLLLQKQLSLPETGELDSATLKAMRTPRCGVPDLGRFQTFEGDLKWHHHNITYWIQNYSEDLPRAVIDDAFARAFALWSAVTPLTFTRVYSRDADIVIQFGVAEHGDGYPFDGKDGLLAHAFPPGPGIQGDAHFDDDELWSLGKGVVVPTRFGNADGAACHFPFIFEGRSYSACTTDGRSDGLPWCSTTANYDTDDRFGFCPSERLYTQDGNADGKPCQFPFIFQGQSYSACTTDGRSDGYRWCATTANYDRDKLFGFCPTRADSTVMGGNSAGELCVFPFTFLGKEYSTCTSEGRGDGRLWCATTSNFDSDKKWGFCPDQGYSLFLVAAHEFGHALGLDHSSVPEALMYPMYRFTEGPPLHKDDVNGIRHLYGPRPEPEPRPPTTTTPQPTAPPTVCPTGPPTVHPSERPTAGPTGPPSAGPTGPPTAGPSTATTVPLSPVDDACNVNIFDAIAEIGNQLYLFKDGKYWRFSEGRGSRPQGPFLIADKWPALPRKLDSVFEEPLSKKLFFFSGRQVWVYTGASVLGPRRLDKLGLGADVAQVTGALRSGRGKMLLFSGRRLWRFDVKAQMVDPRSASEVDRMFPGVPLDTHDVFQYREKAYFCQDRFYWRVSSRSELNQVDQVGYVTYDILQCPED
Procedure: proMMP9/MMP3 P126 Activation Assay
The reaction volume was 50 μL. […] Reactivity of residual MMP3 towards P-126 substrate was minimal under these conditions.

[5] = molecular target: T5, proMMP13(1-268) activation by plasmin (Homo sapiens, UniProt P45452); test: ProMMP13/Plasmin P126 Activation Assay; format: biochemical
T5 construct: 6xHis (C); made in house; host or cells: HEK293 (proMMP13)
Procedure: ProMMP13/Plasmin P126 Activation Assay
On the day of assay, proMMP13(1-268) (SEQ ID NO:7) purified from HEK293 cells and plasmin were diluted to 160 nM and 320 nM, respectively, in assay buffer. The reaction volume was 50 μL. […] The plate was sealed and incubated for 40 min at 37° C. […] Plasmin was not reactive towards P-126 substrate under these conditions.

Row | Kd [1] | Kd [2] | Kd [3] | IC50 [4] | IC50 [5] | Compound
1 | 0.17 µM | 0.1 µM | 0.81 µM | 0.092 µM | 1.9 µM | CC(C)Oc1ccc(C(N)=O)cc1Nc1nc2c(ccc3c2ncn3C)s1 [Example 22, 4-Isopropoxy-3-(6-methyl-6H-imidazo[4′,5′:3,4]benzo[2,1-d]thiazol-2-ylamino)-benzamide.HCl]
2 | 0.12 µM | 0.31 µM | 0.93 µM | 0.19 µM | 4.5 µM | CC(C)Oc1ccc(C(N)=O)cc1Nc1nc2c(ccc3c2cnn3C)s1 [Example 30, 4-Isopropoxy-3-(6-methyl-6H-3-thia-1,6,7-triaza-as-indacen-2-ylamino)-benzamide.HCl]
3 | 0.086 µM | 0.49 µM | 0.58 µM | 0.1 µM | 1.1 µM | CCn1cnc2ccc3sc(Nc4cc(C(N)=O)ccc4OC(C)C)nc3c21 [Example 33, 3-(8-Ethyl-8H-imidazo[4′,5′:3,4]-benzo[2,1-d]thiazol-2-ylamino)-4-isopropoxy-benzamide.HCl]
4 | 3.1 µM | 0.4 µM | 8.3 µM | 0.2 µM | > 20 µM | COc1cc(C(N)=O)ccc1Nc1nc2c(ccc3c2ncn3C)s1 [Example 51, 3-Methoxy-4-(6-methyl-6H-imidazo[4′,5′:3,4]benzo[2,1-d]thiazol-2-ylamino)-benzamide.HCl]
5 | 0.23 µM | 0.035 µM | 2.8 µM | 0.07 µM | ~6 µM | COc1ccc(F)cc1Nc1nc2c(ccc3c2ncn3C)s1 [Example 57, (5-Fluoro-2-methoxy-phenyl)-(6-methyl-6H-imidazo[4′,5′:3,4]benzo[2,1-d]thiazol-2-yl)-amine.HCl]
6 | 3.9 µM | 1.6 µM | 51 µM | 1.1 µM |  | CCc1ccccc1Nc1nc2c(ccc3c2ncn3C)s1 [Example 62, (2-Ethyl-phenyl)-(6-methyl-6H-imidazo[4′,5′:3,4]benzo[2,1-d]thiazol-2-yl)-amine.HCl]
7 | 1.2 µM | 0.45 µM | 2.3 µM | 0.69 µM |  | COc1c(F)cc(F)cc1Nc1nc2c(ccc3c2ncn3C)s1 [Example 63, (3,5-Difluoro-2-methoxy-phenyl)-(6-methyl-6H-imidazo[4′,5′:3,4]benzo[2,1-d]thiazol-2-yl)-amine.HCl]
8 | 3.1 µM | 0.78 µM | 6.8 µM | 0.33 µM | 2.8 µM | CC(C)Oc1ccc(C(N)=O)cc1Nc1nc2c(ccc3ccncc32)s1 [Example 89, 4-Isopropoxy-3-(thiazolo[5,4-h]isoquinolin-2-ylamino)-benzamide.TFA]
9 | 0.28 µM | 3 µM | 2.7 µM | 0.2 µM | 2.5 µM | CC(C)Oc1ccc(C(N)=O)cc1Nc1nc2c(ccc3cnccc32)s1 [Example 90, 4-Isopropoxy-3-(thiazolo[4,5-f]isoquinolin-2-ylamino)-benzamide.TFA]
10 | 0.95 µM | 2.9 µM | 9 µM | 1.3 µM |  | CC(C)Oc1ccc(C(N)=O)cc1Nc1nc2c(ccc3ncccc32)s1 [Example 91, 4-Isopropoxy-3-(thiazolo[4,5-f]quinolin-2-ylamino)-benzamide.TFA]
11 | 1.1 µM | 0.41 µM |  | 0.13 µM | ~6 µM | COc1ccc(S(C)(=O)=O)cc1Nc1nc2c(ccc3c2cnn3C)s1 [Example 92, (5-Methanesulfonyl-2-methoxy-phenyl)-(6-methyl-6H-3-thia-1,6,7-triaza-as-indacen-2-yl)-amine.HCl]
12 | 0.19 µM | 0.36 µM |  | 0.17 µM | 1.8 µM | COc1ccc(C(N)=O)cc1Nc1nc2c(ccc3c2cnn3C)s1 [Example 95, 4-Methoxy-3-(6-methyl-6H-3-thia-1,6,7-triaza-as-indacen-2-ylamino)-benzamide.HCl]
13 | 3 µM | 25 µM | 14 µM | 1.6 µM |  | CC(C)Oc1ccc(C(N)=O)cc1Nc1nc2c(s1)CCc1cnccc1-2 [Example 115, 3-(4,5-Dihydro-thiazolo[4,5-f]isoquinolin-2-ylamino)-4-isopropoxy-benzamide.TFA]
14 | 1.8 µM | 7.3 µM | 8.7 µM | 0.98 µM |  | CC(C)Oc1ccc(C(N)=O)cc1Nc1nc2c(s1)CCc1ccncc1-2 [Example 116, 3-(4,5-Dihydro-thiazolo[5,4-h]isoquinolin-2-ylamino)-4-isopropoxy-benzamide.TFA]
15 | 8.8 µM | 3.5 µM | 32 µM | 6 µM |  | COc1ccc(C(N)=O)cc1Nc1nc2c(s1)CCc1ncccc1-2 [Example 117, 3-(4,5-Dihydro-thiazolo[4,5-f]quinolin-2-ylamino)-4-methoxy-benzamide]
